Converted amounts (≈) assume the structure as drawn.
How the values were obtained:
[1] = biological target: recombinant human Estrogen Receptor alpha ligand binding domain (ER alpha-LBD (GST)) (Homo sapiens (Human), UniProt P03372); assay: ERα binding assay (LanthaScreen TR-FRET competition); conditions: TR-FRET, displacement of Fluormone ES2
Method in brief: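 Competition binding to GST-tagged human ERα ligand-binding domain, read by LanthaScreen TR-FRET: Tb-anti-GST antibody labels the receptor and compounds displace a fluorescent tracer, lowering the signal. IC50 was taken from dose-response curve fitting.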

[2] = biological target: T1, Estrogen Receptor (ERα) in MCF-7 cells (Homo sapiens (Human), UniProt P03372); assay: MCF-7 ER down-regulation assay (immuno-fluorescence); type: cell-based
Method in brief: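 Compounds dispensed acoustically from DMSO stocks onto MCF-7 cells; cells fixed 20 min at room temperature, then automated immunostaining for ERα with overnight incubation at 4° C. Read-out is mean total ER fluorescence intensity normalized to cell number (intensity per cell), with curve fitting for concentration-response values.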

[3] = biological target: estrogen receptor (ERα) in CAMA-1 cells (Homo sapiens (Human), UniProt P03372); assay: Western blotting assay, ER down-regulation in CAMA-1; type: cell-based; conditions: 100 nM compound, 48 h, normalised to 100 nM fulvestrant
Protocol: (§1) Cells were incubated with compounds (100 nM) or vehicle control (0.1% DMSO) for 48 h at 37° C., 5% CO2 before washing once with PBS and lysing with 80 μl lysis buffer (25 mM Tris/HCl, 3 mM EDTA, 3 mM EGTA, 50 mM NaF, 2 mM sodium orthovanadate, 0.27 M sucrose, 10 mM β-glycerophosphate, 5 mM sodium pyrophosphate, 0.5% TritonX-100, pH 6.8) on ice.
(§2) Samples were boiled for 10 min at 95° C. and then frozen at −20° C. until ready for use.
(§3) The blot was stained with Ponceau S (P7170, Sigma) and cut according to appropriate molecular weight markers.
(§4) Membranes were blocked for 1 hour at room temp in 5% Marvel (w/v) in phosphate-buffered saline containing 0.05% Tween™ 20 (PBS/Tween). Blots were then incubated with anti-ERα (SP1) rabbit monoclonal antibody (Thermofisher) diluted 1:1000 at 4° C. overnight (with gentle shaking) followed by several washes with PBS/Tween. […] All antibodies were made up in 5% Marvel (w/v) in PBS/Tween.
(§5) Down-regulation of the ERα receptor was normalised to the vehicle control (0% down-regulation) and the 100 nM fulvestrant control (100% down-regulation) run within the same gel.

[4] = biological target: T1, Estrogen Receptor (ERα) in MCF-7 cells; assay: Western blotting assay, ER down-regulation in MCF-7; type: cell-based; conditions: 100 nM compound, 48 h, normalised to 100 nM fulvestrant
Protocol: as §1, §2, §3, §4, §5

[5] = log D (shake flask, 1-octanol/aqueous buffer); type: physicochemical
Method in brief: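 Distribution between 1-octanol and aqueous buffer at pH 7.4 was measured by shake flask, with compounds run in mixtures of ten. Relative concentrations in each phase were quantified by UPLC with quantitative MS. Caffeine served as a low-log D QC sample in all runs.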

[6] = Thermodynamic solubility (shake-flask); type: physicochemical; conditions: aqueous phosphate buffer, 25 °C, pH 7.4, aqueous buffer, thermodynamic from solid, aqueous phosphate buffer pH 7.4, 24 hours
Method in brief: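 Shake-flask method starting from 10 mM DMSO stocks, which are dried before use. Residue equilibrated 24 h at 25° C. in aqueous phosphate buffer, pH 7.4. Dissolved fraction separated and quantified by UPLC/MS/MS, with QC samples in each run.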

[7] = Human plasma protein binding (equilibrium dialysis); type: in vitro ADME; conditions: dialysis 18 hours
Method in brief: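 Fraction unbound (fu %) in human plasma, from LC/MSMS of plasma and buffer sides (7-point plasma calibration) after 18 h rapid equilibrium dialysis. Single determinations, with compounds pooled up to 10 per plasma pool.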

[8] = biological target: hERG potassium channel (Homo sapiens (Human), UniProt Q12809); assay: hERG binding assay (automated patch clamp, CHO cells); type: cell-based; conditions: CHO cell line, Nanion Syncropatch 384PE
Protocol: Reagent preparations include: • 1.
Cell preparations: • 1. If using cell culture; cells to be incubated at 30° C. for approximately 4-6 days prior to being used. Day of assay lift cells using accutase and re-suspend in 20 ml cell buffer to a density of 0.8 to 1e6 cells/ml. • 2. If using assay ready cryovials; rapidly thaw two cryovials at 37° C. and slowly pipette into 23 ml external solution • 3.
All compounds were acoustically dispensed in quadruplicate using a Labcyte Echo. […] Fill 384 well medium resistance 4 hole chips with 40 μl external buffer and perfuse internal buffer to the underside of plate. • 2. Dispense 20 μl of cells into each well of the chip followed by 20 μl of seal enhancer. • 3. Remove 40 μl of reagent from each well to the wash station, leaving a residual volume of 40 μl • 4. Dispense 40 μl of reference buffer with a removal step of 40 μl after 3 min, repeat this step. • 5.
hERG-mediated currents were elicited using a voltage step protocol consisting of acontinuous holding voltage of −80 mV, with a 500 ms step to 60 mV followed by a 500 ms step to −40 mV every 15 seconds. hERG current magnitude was measured automatically from the leak-subtracted traces by the Nanion software by taking the peak of the hERG “tail” current at −40 mV every 15 seconds and taking the last three of these responses for each concentration to generate the concentration-effect curve.
Calculation of results is performed using APC package within Genedata. For the routine normalization of well data with Neutral and Inhibitor control well groups as reference, GeneData Assay Analyzer uses the following equation to normalize the signal values to the desired signal range:
[formula] • x is the measured raw signal value of a well • is the median of the measured signal values for the Central Reference (Neutral) wells on a plate • is the median of the measured signal values for the Scale Reference (Inhibitor) wells on a plate • CR is the desired median normalized value for the Central Reference (Neutral) • SR is the desired median normalized value for the Scale Reference (Inhibitor)

[9] = 1-octanol/aqueous buffer, pH 7.4, pH 7.4, 1-octanol/aqueous buffer
[10] = pH 7.4, 1-octanol/aqueous buffer

estrogen receptor (ERα) in CAMA-1 cells, sequence (P03372 whole entry): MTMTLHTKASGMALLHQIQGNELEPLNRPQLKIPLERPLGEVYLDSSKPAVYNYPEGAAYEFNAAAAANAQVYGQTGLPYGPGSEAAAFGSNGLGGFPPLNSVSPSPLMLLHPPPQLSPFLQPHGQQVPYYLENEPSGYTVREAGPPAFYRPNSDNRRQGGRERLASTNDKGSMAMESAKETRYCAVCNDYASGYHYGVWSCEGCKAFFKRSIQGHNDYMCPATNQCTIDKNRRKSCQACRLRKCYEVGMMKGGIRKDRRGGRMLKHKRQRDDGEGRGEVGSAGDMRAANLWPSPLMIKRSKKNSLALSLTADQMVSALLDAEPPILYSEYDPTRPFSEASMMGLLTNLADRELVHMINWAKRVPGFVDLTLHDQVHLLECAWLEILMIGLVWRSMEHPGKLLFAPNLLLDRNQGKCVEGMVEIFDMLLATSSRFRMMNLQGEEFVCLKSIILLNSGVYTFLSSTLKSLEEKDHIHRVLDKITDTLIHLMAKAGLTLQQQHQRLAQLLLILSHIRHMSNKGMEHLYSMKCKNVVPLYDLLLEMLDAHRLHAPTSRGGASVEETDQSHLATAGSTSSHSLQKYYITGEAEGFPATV
T1 sequence (P03372 whole entry): as above
recombinant human Estrogen Receptor alpha ligand binding domain (ER alpha-LBD (GST)), sequence (P03372 307-554): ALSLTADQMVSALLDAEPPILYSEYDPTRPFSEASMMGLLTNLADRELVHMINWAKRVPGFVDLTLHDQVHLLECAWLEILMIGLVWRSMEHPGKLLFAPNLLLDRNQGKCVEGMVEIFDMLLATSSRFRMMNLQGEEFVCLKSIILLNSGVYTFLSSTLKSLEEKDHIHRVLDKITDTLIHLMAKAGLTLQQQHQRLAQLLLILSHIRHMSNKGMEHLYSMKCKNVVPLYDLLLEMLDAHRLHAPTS
hERG potassium channel, sequence (Q12809 whole entry): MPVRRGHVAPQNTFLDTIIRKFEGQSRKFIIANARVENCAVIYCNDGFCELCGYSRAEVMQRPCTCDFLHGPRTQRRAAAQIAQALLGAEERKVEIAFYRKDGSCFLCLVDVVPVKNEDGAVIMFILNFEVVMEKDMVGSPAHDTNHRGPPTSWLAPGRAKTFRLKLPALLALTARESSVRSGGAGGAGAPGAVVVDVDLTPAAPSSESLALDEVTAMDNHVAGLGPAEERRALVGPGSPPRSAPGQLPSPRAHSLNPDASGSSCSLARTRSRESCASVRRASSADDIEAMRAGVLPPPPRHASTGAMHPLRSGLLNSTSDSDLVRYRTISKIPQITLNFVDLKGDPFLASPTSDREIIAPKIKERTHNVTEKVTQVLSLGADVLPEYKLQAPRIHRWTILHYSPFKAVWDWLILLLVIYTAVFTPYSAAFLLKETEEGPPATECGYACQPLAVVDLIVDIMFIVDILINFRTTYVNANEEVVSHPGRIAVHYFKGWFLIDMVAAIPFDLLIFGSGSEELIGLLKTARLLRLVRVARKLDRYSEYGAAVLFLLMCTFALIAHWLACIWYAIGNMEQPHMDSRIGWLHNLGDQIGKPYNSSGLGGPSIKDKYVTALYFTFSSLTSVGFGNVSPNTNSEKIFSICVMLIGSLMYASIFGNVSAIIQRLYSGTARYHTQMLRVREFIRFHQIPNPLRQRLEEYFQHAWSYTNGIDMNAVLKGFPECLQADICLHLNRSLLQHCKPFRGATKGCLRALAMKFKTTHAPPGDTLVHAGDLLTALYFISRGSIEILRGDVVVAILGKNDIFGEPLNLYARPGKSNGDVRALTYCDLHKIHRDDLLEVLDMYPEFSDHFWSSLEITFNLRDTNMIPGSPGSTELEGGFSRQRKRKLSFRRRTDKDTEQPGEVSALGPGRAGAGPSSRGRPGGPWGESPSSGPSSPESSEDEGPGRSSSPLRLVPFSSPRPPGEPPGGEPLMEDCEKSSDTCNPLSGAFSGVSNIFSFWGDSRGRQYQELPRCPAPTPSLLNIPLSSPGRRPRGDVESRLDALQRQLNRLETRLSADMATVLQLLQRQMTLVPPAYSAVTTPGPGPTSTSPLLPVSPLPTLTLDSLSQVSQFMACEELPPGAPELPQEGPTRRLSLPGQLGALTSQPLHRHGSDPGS

SMILES | IC50 [1] [nM] | IC50 [2] [nM] | CAMA1 Western % ER deg vs Fv [3] [%] | MCF7 Western % ER deg vs Fv [4] [%] | logD [5, 9] | solubility at 24 h [6] [µM] | Human plasma protein binding (% free) [7] [% free] | IC50 [8] [nM] | logD [5, 10]
C[C@@H]1Cc2c(ccc3[nH]ncc23)[C@@H](c2c(F)cc(NC3CN(CCCF)C3)cc2F)N1CC(F)(F)CO [Example 5, 3-((6S,8R)-6-(2,6-difluoro-4-((1-(3-fluoropropyl)azetidin-3-yl)amino)phenyl)-8-methyl-3,6,8,9-tetrahydro-7H-pyrazolo[4,3-f]isoquinolin-7-yl)-2,2-difluoropropan-1-ol] | 2.2 | 0.077 | 109 | 99 | 3.3 | 297 (≈ 155 µg/mL) | 8.6 | 13000 | –
COc1cc(OC2CN(CCCF)C2)ccc1[C@@H]1c2ccc3[nH]ncc3c2C[C@@H](C)N1CC1(F)CC1 [Example 7, (6S,8R)-7-((1-fluorocyclopropyl)methyl)-6-(4-((1-(3-fluoropropyl)azetidin-3-yl)oxy)-2-methoxyphenyl)-8-methyl-6,7,8,9-tetrahydro-3H-pyrazolo[4,3-f]isoquinoline] | 8.4 | 0.4 | 90 | 90 | – | 470 (≈ 233 µg/mL) | 11 | – | 3.5
C[C@@H]1Cc2c(ccc3[nH]ncc23)[C@@H](c2c(F)cc(NC3CN(CCCF)C3)cc2F)N1CC(F)(F)F [Example 8, N-(3,5-difluoro-4-((6S,8R)-8-methyl-7-(2,2,2-trifluoroethyl)-6,7,8,9-tetrahydro-3H-pyrazolo[4,3-f]isoquinolin-6-yl)phenyl)-1-(3-fluoropropyl)azetidin-3-amine] | 2 | 0.055 | 100 | 101 | 4.4 | 90 (≈ 46 µg/mL) | 0.99 | – | –
COc1cc(NC2CN(CCCF)C2)ncc1[C@@H]1c2ccc3[nH]ncc3c2C[C@@H](C)N1CC1(F)CC1 [Example 9, 5-((6S,8R)-7-((1-fluorocyclopropyl)methyl)-8-methyl-6,7,8,9-tetrahydro-3H-pyrazolo[4,3-f]isoquinolin-6-yl)-N-(1-(3-fluoropropyl)azetidin-3-yl)-4-methoxypyridin-2-amine] | 360 | > 300 | 25 | −13 | 1 | > 1000 | 21 | – | –
C[C@@H]1Cc2c(ccc3[nH]ncc23)[C@@H](c2ccc(OC3CN(CCCF)C3)cn2)N1CC(F)F [Example 26, (6S,8R)-7-(2,2-difluoroethyl)-6-(5-((1-(3-fluoropropyl)azetidin-3-yl)oxy)pyridin-2-yl)-8-methyl-6,7,8,9-tetrahydro-3H-pyrazolo[4,3-f]isoquinoline] | 6.7 | 0.52 | 97 | 97 | 3 | 258 (≈ 119 µg/mL) | 22 | – | –
C[C@@H]1Cc2c(ccc3[nH]ncc23)[C@@H](c2ccc(N(C)C3CN(CCCF)C3)cn2)N1CC(F)(F)F [Example 34, N-(1-(3-fluoropropyl)azetidin-3-yl)-N-methyl-6-((6S,8R)-8-methyl-7-(2,2,2-trifluoroethyl)-6,7,8,9-tetrahydro-3H-pyrazolo[4,3-f]isoquinolin-6-yl)pyridin-3-amine] | 1.9 | 0.22 | 82 | 85 | – | 471 (≈ 231 µg/mL) | 15 | 7700 | 3.2
C[C@@H]1Cc2c(ccc3[nH]ncc23)[C@@H](c2cnc(NC3CN(CCCF)C3)cn2)N1CC(F)(F)F [Example 42, N-(1-(3-fluoropropyl)azetidin-3-yl)-5-((6S,8R)-8-methyl-7-(2,2,2-trifluoroethyl)-6,7,8,9-tetrahydro-3H-pyrazolo[4,3-f]isoquinolin-6-yl)pyrazin-2-amine] | 3.8 | 0.28 | 79 | 92 | 2.4 | 712 (≈ 340 µg/mL) | – | 7900 | –
C[C@@H]1Cc2c(ccc3[nH]ncc23)[C@@H](c2c(F)cc(NC3CN(CCCF)C3)cc2F)N1CC(F)F [Example 49, N-(4-((6S,8R)-7-(2,2-difluoroethyl)-8-methyl-6,7,8,9-tetrahydro-3H-pyrazolo[4,3-f]isoquinolin-6-yl)-3,5-difluorophenyl)-1-(3-fluoropropyl)azetidin-3-amine] | 1.5 | 0.075 | 99 | 98 | 3.8 | 163 (≈ 80.4 µg/mL) | – | 8200 | –
COc1cc(NC2CN(CCCF)C2)c(F)cc1[C@@H]1c2ccc3[nH]ncc3c2C[C@@H](C)N1CC1(F)CC1 [Example 53, N-(2-fluoro-4-((6S,8R)-7-((1-fluorocyclopropyl)methyl)-8-methyl-6,7,8,9-tetrahydro-3H-pyrazolo[4,3-f]isoquinolin-6-yl)-5-methoxyphenyl)-1-(3-fluoropropyl)azetidin-3-amine] | 5.7 | 0.26 | 46 | 81 | 3.2 | 691 (≈ 355 µg/mL) | 11 | – | –
COc1cc(NC2CN(CCC(F)(F)F)C2)ccc1[C@@H]1c2ccc3[nH]ncc3c2C[C@@H](C)N1CC1(F)CC1 [Example 56, N-(4-((6S,8R)-7-((1-fluorocyclopropyl)methyl)-8-methyl-6,7,8,9-tetrahydro-3H-pyrazolo[4,3-f]isoquinolin-6-yl)-3-methoxyphenyl)-1-(3,3,3-trifluoropropyl)azetidin-3-amine] | 8.2 | 0.58 | 52 | 61 | 3.6 | 377 (≈ 200 µg/mL) | – | – | –

— patent US10131663B2, “Chemical compounds” (AstraZeneca AB, priority 2016, dated 2018)
